Experiments:
BCAT2 [1] = target: T1, BCAT2 (Homo sapiens, UniProt O15382); test: BCAT2 cell inhibition using engineered A549 cells (MUT KO, BCAT1 KO; 13C6-KMV formation by LC-MS/MS); format: cell-based; design: expressed endogenous BCAT2; endogenous in cells; host or cells: A549 cells, MUT knockout and BCAT1 knockout
T1 sequence (O15382 28-392): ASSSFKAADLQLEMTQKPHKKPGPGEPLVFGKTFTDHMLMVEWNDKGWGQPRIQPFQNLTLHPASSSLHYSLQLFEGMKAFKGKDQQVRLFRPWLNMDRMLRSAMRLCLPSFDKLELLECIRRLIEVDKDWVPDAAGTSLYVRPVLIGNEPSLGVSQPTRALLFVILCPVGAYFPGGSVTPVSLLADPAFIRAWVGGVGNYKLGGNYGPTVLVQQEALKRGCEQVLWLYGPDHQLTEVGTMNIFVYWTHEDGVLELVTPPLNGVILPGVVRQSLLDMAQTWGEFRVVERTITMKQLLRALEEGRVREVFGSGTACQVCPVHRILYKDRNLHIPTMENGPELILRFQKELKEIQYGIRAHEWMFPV
Excerpt: Endogenous Methylmalonyl-CoA Mutase (MUT) and Branched Chain Aminotransferase 1 (BCAT1) in A549 cells was knocked out by CRISPR/CAS9 using the targeting system from TransOMIC Technologies. The following guide sequence was cloned into pCLIP-ALL-EFS-Blast vector to target human MUT: […] (SEQ ID NO: 35). The following guide sequence was cloned into pCLIP-ALL-EFS-Puro vector to target human BCAT1: […] (SEQ ID NO: 36). The resulting plasmids were co-transfected into 293T cells with VSV-G, P-PEX, and Fugene-6. Lentivirus was harvested and A549 cells were first transduced with lentivirus targeting MUT and polybrene. After genetic selection with blasticidin clonal selection was performed and validated via western blot analysis to confirm MUT was no longer expressed. These MUT KO cells were then transduced with lentivirus targeting BCAT1 and polybrene. After selection with puromycin clonal selection was performed and clones were validated via western blot analysis to confirm BCAT1 was no longer expressed in these cells. The result was an engineered A549 cell line that expressed endogenous BCAT2.
For KMV cell assays, on day 1, 25,000 cells/100 μL EMEM (10% FBS) were seeded in each well of a 96-well plate. On day 2, medium was replaced with 50 μL fresh EMEM (10% dialyzed FBS) containing 2× the assay concentration of experimental compound. After 15 minutes, 50 μL of 800 uM ^15N,^13C6-Isoleucine in EMEM (10% dialyzed FBS) was added to each well and incubated for 24 hours. On day 3, 50 μL of media from each well was collected and transferred to another 96-well plate for ^13C6-3-Methyl-2-Oxopentanoic Acid (KMV) analysis via LC-MS/MS. In the remaining assay wells 50 μL of Promega Glo CTG reagent was added and luminescence was measured as a cell viability readout.
For LC-MS/MS analysis 5 μL of cell assay media from each well was transferred to a 96-well plate and 45 μL of ACN:0.1% NaOH (50:50, v/v)^+0.20 nM d8-KMV was added and mixed on a shaker. 15 μL was transferred to a new 96-well plate and 15 μL of 10 mg/mL PFBHA solution was added and mixed on the shaker. The reaction was placed on ice for 30 minutes and quenched with 10 μL of ACN: Acetone (50:50, v/v) on a shaker. The resulting mixture was diluted with 100 μL of ACN:0.1% NaOH (50:50, v/v) on a shaker. 10 μL of sample were injected on the Shimadzu 20AD LC-MS/MS to quantify ^13C6-KMV.
Where a compound was tested multiple times, the average value of the tests is reported.

BCAT2 [2] = target: T1, BCAT2; test: BCAT2 in vitro enzyme inhibition assay (hBCAT2, glutamate dehydrogenase/diaphorase/resazurin coupled fluorescence read); format: biochemical; conditions: hBCAT2, 1 h preincubation at 25° C., one hour reaction; average where tested multiple times
Outline: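 hBCAT2 (0.33 μg/mL in mix) preincubated 1 h at 25 °C with compound (top 100 μM, 3-fold, 10 points) in Tris pH 8.0/NaCl/BSA; substrate mix added (L-leucine, α-ketoglutarate, GDH, NAD, diaphorase, resazurin), quenched with SDS after 1 h, fluorescence Ex 540/Em 590; duplicates, repeat tests averaged.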

[3] = read-out: BCAT2 Cell Inhibition (IC50), engineered A549 cells, 24 hours, 13C6-KMV in media, average where tested multiple times

Compound	IC50 (BCAT2 [1])	IC50 (BCAT2 [2])	IC50 (BCAT2 [1]; [3])	IC50 (BCAT2 [1]; engineered A549 cells, 24 hours, 13C6-KMV in media, average where tested multiple times, read-out: BCAT2 Cell Inhibition (IC50))
CCN(C)Cc1nc2cnc(-c3nc[nH]n3)cc2n1[C@@H]1CCC[C@H](NC(=O)c2cc(Cl)ccn2)C1 [Example 24, 4-chloro-N-((1S,3R)-3-(2-((ethyl(methyl)amino)methyl)-6-(1H-1,2,4-triazol-3-yl)-1H-imidazo[4,5-c]pyridin-1-yl)cyclohexyl)picolinamide]		0.5 to 1 µM	> 1 µM	
O=C(N[C@@H]1C[C@@H](OC(F)F)C[C@H](n2c(-c3ccccc3F)nc3cnc(-c4ncn[nH]4)cc32)C1)c1cc(F)ccn1 (relative stereo) [compound 128]		< 0.1 µM		0.1 to 0.5 µM
CN1C[C@H](NC(=O)c2cc(Cl)ccn2)C[C@H](n2c(-c3ncccc3F)nc3cnc(-c4nc[nH]n4)cc32)C1 [Example 132, 4-chloro-N-((3R,5S)-5-(2-(3-fluoropyridin-2-yl)-6-(1H-1,2,4-triazol-3-yl)-1H-imidazo[4,5-c]pyridin-1-yl)-1-methylpiperidin-3-yl)picolinamide]		< 0.1 µM	> 1 µM	
O=C1c2cc(F)ccc2CN1[C@H]1CCC[C@@H](n2c(-c3ccccc3F)nc3cnc(-c4nc[nH]n4)cc32)C1 [Example 169, 6-fluoro-2-((1S,3R)-3-(2-(2-fluorophenyl)-6-(1H-1,2,4-triazol-3-yl)-1H-imidazo[4,5-c]pyridin-1-yl)cyclohexyl)isoindolin-1-one]	< 0.1 µM	< 0.1 µM		
COc1ccc(C#N)cc1C(=O)N[C@H]1CCC[C@@H](n2c(-c3ccccc3F)nc3cnc(-c4nc[nH]n4)cc32)C1 [Example 33, 5-cyano-N-((1S,3R)-3-(2-(2-fluorophenyl)-6-(1H-1,2,4-triazol-3-yl)-1H-imidazo[4,5-c]pyridin-1-yl)cyclohexyl)-2-methoxybenzamide]	0.5 to 1 µM	< 0.1 µM		
O=C(N[C@H]1CCC[C@@H](n2c(-c3ccccc3F)nc3cnc(-c4nc[nH]n4)cc32)C1)c1ncccc1Cl [Example 10, 3-chloro-N-((1S,3R)-3-(2-(2-fluorophenyl)-6-(1H-1,2,4-triazol-3-yl)-1H-imidazo[4,5-c]pyridin-1-yl)cyclohexyl)picolinamide]	0.5 to 1 µM	< 0.1 µM		
O=C1c2cc(F)ccc2CN1[C@H]1CCC[C@@H](n2c(-c3ccccc3F)nc3cnc(-c4ncccc4F)cc32)[C@@H]1O [Example 190, 6-fluoro-2-((1S,2S,3R)-3-(2-(2-fluorophenyl)-6-(3-fluoropyridin-2-yl)-1H-imidazo[4,5-c]pyridin-1-yl)-2-hydroxycyclohexyl)isoindolin-1-one]	< 0.1 µM			
CN1C[C@H](NC(=O)c2cc(Cl)ccn2)C[C@H](n2c(-c3ccccc3OCCO)nc3cnc(-c4ncccn4)cc32)C1 [Example 164, 4-chloro-N-((3R,5S)-5-(2-(2-(2-hydroxyethoxy)phenyl)-6-(pyrimidin-2-yl)-1H-imidazo[4,5-c]pyridin-1-yl)-1-methylpiperidin-3-yl)picolinamide]		< 0.1 µM		
CCNCc1nc2cnc(-c3nc[nH]n3)cc2n1[C@@H]1CCC[C@H](NC(=O)c2cc(Cl)ccn2)C1 [Example 38, 4-chloro-N-((1S,3R)-3-(2-((ethylamino)methyl)-6-(1H-1,2,4-triazol-3-yl)-1H-imidazo[4,5-c]pyridin-1-yl)cyclohexyl)picolinamide]		> 1 µM		
CC(C)OCc1nc2cnc(-c3nc[nH]n3)cc2n1[C@@H]1CCC[C@H](NC(=O)c2cc(Cl)ccn2)C1 [Example 20, 4-chloro-N-((1S,3R)-3-(2-(isopropoxymethyl)-6-(1H-1,2,4-triazol-3-yl)-1H-imidazo[4,5-c]pyridin-1-yl)cyclohexyl)picolinamide]		> 1 µM		

Results, then the compound that gave them:

IC50 (BCAT2 [1])	IC50 (BCAT2 [2])	IC50 (BCAT2 [1]; [3])	IC50 (BCAT2 [1]; engineered A549 cells, 24 hours, 13C6-KMV in media, average where tested multiple times, read-out: BCAT2 Cell Inhibition (IC50))	Compound
< 0.1 µM	< 0.1 µM			O=C1c2cc(F)ccc2CN1[C@H]1CCC[C@@H](n2c(-c3c(O)cccc3F)nc3cnc(-c4nc[nH]n4)cc32)C1 [Example 179, 6-fluoro-2-((1S,3R)-3-(2-(2-fluoro-6-hydroxyphenyl)-6-(1H-1,2,4-triazol-3-yl)-1H-imidazo[4,5-c]pyridin-1-yl)cyclohexyl)isoindolin-1-one]
0.1 to 0.5 µM	< 0.1 µM			CN1C[C@H](NC(=O)c2cc(Cl)ccc2OCCO)C[C@H](n2c(-c3ccccc3F)nc3cnc(-c4nc[nH]n4)cc32)C1 [Example 150, 5-chloro-N-((3R,5S)-5-(2-(2-fluorophenyl)-6-(1H-1,2,4-triazol-3-yl)-1H-imidazo[4,5-c]pyridin-1-yl)-1-methylpiperidin-3-yl)-2-(2-hydroxyethoxy)benzamide]
< 0.1 µM	< 0.1 µM			COc1ccc(Cl)cc1C(=O)N[C@H]1CCC[C@@H](n2c(-c3ccccc3F)nc3cnc(-c4nc[nH]n4)cc32)C1 [Example 1, 5-chloro-N-((1S,3R)-3-(2-(2-fluorophenyl)-6-(1H-1,2,4-triazol-3-yl)-1H-imidazo[4,5-c]pyridin-1-yl)cyclohexyl)-2-methoxybenzamide]
< 0.1 µM	< 0.1 µM			N#Cc1ccccc1-c1nc2cnc(-c3nc[nH]n3)cc2n1[C@@H]1CCC[C@H](NC(=O)c2cc(Cl)ccn2)C1 [Example 45, 4-chloro-N-((1S,3R)-3-(2-(2-cyanophenyl)-6-(1H-1,2,4-triazol-3-yl)-1H-imidazo[4,5-c]pyridin-1-yl)cyclohexyl)picolinamide]
< 0.1 µM	< 0.1 µM			O=C(N[C@H]1CCC[C@@H](n2c(-c3ccccc3F)nc3ccc(-c4nc[nH]n4)c(F)c32)C1)c1cc(Cl)ccn1 [Example 230, 4-chloro-N-((1S,3R)-3-(7-fluoro-2-(2-fluorophenyl)-6-(1H-1,2,4-triazol-3-yl)-1H-benzo[d]imidazol-1-yl)cyclohexyl)picolinamide]
	< 0.1 µM	> 1 µM		COc1cccc(F)c1C(=O)N[C@H]1CCC[C@@H](n2c(-c3ccccc3F)nc3cnc(-c4nc[nH]n4)cc32)C1 [Example 2, 2-fluoro-N-((1S,3R)-3-(2-(2-fluorophenyl)-6-(1H-1,2,4-triazol-3-yl)-1H-imidazo[4,5-c]pyridin-1-yl)cyclohexyl)-6-methoxybenzamide]
0.1 to 0.5 µM	< 0.1 µM			CC(Oc1ccc(Cl)cc1C(=O)N[C@H]1CCC[C@@H](n2c(-c3ccccc3F)nc3cnc(-c4nc[nH]n4)cc32)C1)C(F)(F)F (stereo partly drawn) [Example 88, 5-chloro-N-((1S,3R)-3-(2-(2-fluorophenyl)-6-(1H-1,2,4-triazol-3-yl)-1H-imidazo[4,5-c]pyridin-1-yl)cyclohexyl)-2-((1,1,1-trifluoropropan-2-yl)oxy)benzamide]
0.1 to 0.5 µM	< 0.1 µM			CO[C@H]1C[C@H](N2Cc3ccc(F)cc3C2=O)C[C@H](n2c(-c3c(O)cccc3F)nc3cnc(-c4nc[nH]n4)cc32)C1 [Example 192, 6-fluoro-2-((1R,3S,5R)-3-(2-(2-fluoro-6-hydroxyphenyl)-6-(1H-1,2,4-triazol-3-yl)-1H-imidazo[4,5-c]pyridin-1-yl)-5-methoxycyclohexyl)isoindolin-1-one]
	< 0.1 µM	> 1 µM		COc1ccc(Cl)cc1C(=O)N[C@H]1CCC[C@@H](n2c(-c3ccccc3F)nc3ccc(-c4nc[nH]n4)cc32)[C@@H]1O [Example 217, 5-chloro-N-((1S,2R,3R)-3-(2-(2-fluorophenyl)-6-(1H-1,2,4-triazol-3-yl)-1H-benzo[d]imidazol-1-yl)-2-hydroxycyclo-hexyl)-2-methoxybenzamide]

Source: patent US20260334439A1, “BCAT2 INHIBITORS” (Agios Pharmaceuticals, Inc., priority 2023, published 2026)
